Results from patent US8372617B2, “β-galactoside-α2,6-sialyltransferase, a gene encoding thereof, and a method for enhancing enzyme activity” (Japan Tobacco Inc., priority 2007, dated 2013).

Columns and labels:
[1] = test system: recombinant β-galactoside-α2,6-sialyltransferase N1C0; assay: Glycosyl acceptor substrate specificity, monosaccharides and disaccharides; assay type: biochemical, Photobacterium leiognathi; settings: for % (nmol), relative activity toward acceptor substrate: sialyltransferase activity toward lactose set to 100; for transfer of sialic acid to acceptor substrate: 11 monosaccharides and disaccharides tested
From the text: The purified enzyme prepared in Example 3 for JT-SHIZ-145-derived recombinant β-galactoside-α2,6-sialyltransferase N1C0 (SEQ ID NO: 4) was used to cause sialic acid transfer reaction in various monosaccharides/disaccharides as glycosyl acceptor substrates. The reaction was accomplished as described in J. Biochem., 120, 104-110 (1996). The monosaccharides used as glycosyl acceptor substrates were the following 8 types: methyl-α-D-galactopyranoside (Gal-α-OMe), methyl-β-D-galactopyranoside (Gal-β-OMe), methyl-α-D-glucopyranoside (Glc-α-OMe), methyl-β-D-glucopyranoside (Glc-β-OMe), methyl-α-D-mannopyranoside (Man-α-OMe), methyl-β-D-mannopyranoside (Man-β-OMe), N-acetylgalactosamine (GalNAc), and N-acetylglucosamine (GlcNAc). The disaccharides used were the following 3 types: lactose (Gal-β1,4-Glc), N-acetyllactosamine (Gal-β1,4-GlcNAc) and Gal-β1,3-GalNAc.
It should be noted that the relative activity toward each acceptor substrate was calculated assuming that the sialyltransferase activity toward lactose was set to 100.

[2] = test system: recombinant β-galactoside-α2,6-sialyltransferase N1C0
Experimental: Using a crude enzyme solution, enzyme activity was measured in a reaction solution adjusted to contain calcium chloride and/or EDTA at a final concentration of 10 mM for calcium ion and 50 mM for EDTA.

[3] = test system: recombinant β-galactoside-α2,6-sialyltransferase N1C0; assay: Effect of addition of various salts (complex ions, Na+/K+) on enzyme activity; assay type: biochemical, Photobacterium leiognathi; settings: anion concentration 0.1 M in Tris-HCl, 30° C.; compared to absence of addition
Experimental: Aqueous solutions were prepared for potassium nitrate (KNO3), sodium nitrate (NaNO3), potassium sulfate (K2SO4), sodium sulfate (Na2SO4), sodium dihydrogen phosphate (NaH2PO4), disodium hydrogen phosphate (Na2HPO4) and potassium phosphate (KH2PO4+K2HPO4 (abbreviated as KPB)). These aqueous solutions were each adjusted with Tris-HCl buffer to give an anion concentration of 0.1 M in the reaction solution at 30° C., and used for enzyme activity measurement.
It should be noted that enzyme activity in the reaction solution upon addition of each solution was evaluated as relative activity, assuming that the enzyme activity in the absence of addition (i.e., in Tris-HCl alone) was set to 1.

| Compound | % (nmol), relative activity toward acceptor substrate [1] [%] | transfer of sialic acid to acceptor substrate [1] | further results |
| --- | --- | --- | --- |
| CO[C@H]1O[C@H](CO)[C@H](O)[C@H](O)[C@H]1O [Gal-α-OMe, methyl-α-D-galactopyranoside] | 2 | – | – |
| CC(=O)N[C@H]1C(O)O[C@H](CO)[C@H](O)[C@@H]1O[C@@H]1O[C@H](CO)[C@H](O)[C@H](O)[C@H]1O (stereo partly drawn) [Gal-β1,3-GalNAc] | 71 | efficiently transferred | – |
| OC[C@H]1O[C@@H](O[C@H]2[C@H](O)[C@@H](O)C(O)O[C@@H]2CO)[C@H](O)[C@@H](O)[C@H]1O (stereo partly drawn) [Gal-β1,4-Glc, lactose] | 100 | efficiently transferred | – |
| CC(=O)N[C@H]1C(O)O[C@H](CO)[C@@H](O[C@@H]2O[C@H](CO)[C@H](O)[C@H](O)[C@H]2O)[C@@H]1O (stereo partly drawn) [Gal-β1,4-GlcNAc, N-acetyllactosamine] | 205 | efficiently transferred | – |
| CO[C@@H]1O[C@H](CO)[C@H](O)[C@H](O)[C@H]1O [Gal-β-OMe, methyl-β-D-galactopyranoside] | 59 | efficiently transferred | – |
| CC(=O)N[C@H]1C(O)O[C@H](CO)[C@H](O)[C@@H]1O (some centres unmarked) [GalNAc, N-acetylgalactosamine] | 35 | efficiently transferred | – |
| CO[C@H]1O[C@H](CO)[C@@H](O)[C@H](O)[C@H]1O [Glc-α-OMe, methyl-α-D-glucopyranoside] | 0 | – | – |
| CO[C@@H]1O[C@H](CO)[C@@H](O)[C@H](O)[C@H]1O [Glc-β-OMe, methyl-β-D-glucopyranoside] | 0 | – | – |
| CC(=O)N[C@H]1C(O)O[C@H](CO)[C@@H](O)[C@@H]1O (some centres unmarked) [GlcNAc, N-acetylglucosamine] | 6 | – | – |
| CO[C@H]1O[C@H](CO)[C@@H](O)[C@H](O)[C@@H]1O [Man-α-OMe, methyl-α-D-mannopyranoside] | 0 | – | – |
| CO[C@@H]1O[C@H](CO)[C@@H](O)[C@H](O)[C@@H]1O [Man-β-OMe, methyl-β-D-mannopyranoside] | 0 | – | – |
| [Ca+2].[Cl-].[Cl-] [calcium ion, calcium chloride] | – | – | enzyme activity with calcium ion together with EDTA ([2]; 10 mM calcium ion and 50 mM EDTA): almost the same level as in the absence of calcium ion; enzyme activity in the presence of calcium ion ([2]; 10 mM calcium ion, compared to absence of calcium ion): remarkably increased |
| O=P([O-])([O-])O.[Na+].[Na+] [disodium hydrogen phosphate] | – | – | effect of addition on enzyme activity [3]: maximum |
| potassium phosphate (KH2PO4+K2HPO4 (abbreviated as KPB)) [potassium phosphate (KPB)] | – | – | effect of addition on enzyme activity [3]: maximum |
